“Also recorded” adds a separate entry of the source.
Tests used:
[1] = tested on: H9 ESC; test: Flow cytometry of MSC surface markers after ESC to MSC differentiation with ALK-5 inhibitor; format: cell-based, human; conditions: H9 ES-MSC
Protocol: An overview of the differentiation process is provided in FIG. 1, panel K. To create cell clusters or embryoid bodies of uniform size, ESCs were removed from CellStart culture using Accutase® for 2-5 minutes until single cells were observed. […] After 24 hours, the cell clusters were suspended at 2.5-3×10^5 cells per ml in ultra-low adherent 6 well plates (Corning) in StemPro-34 serum free medium (ThermoFisher) supplemented with 2 mM L-glutamine (ThermoFisher Scientific), 50 μg/ml Ascorbic acid (Stemcell Technologies, Vancouver, Canada) and 1.8 μl/ml ITS-G (100× Insulin-Transferrin-Selenium; ThermoFisher); termed as “complete SP-34 medium”.
The medium was changed every 2 days by removing cell clusters into 15 ml sterile tubes and permitted to gravity settle for 10 minutes at room temperature. Most of the media was removed using a pipette to leave approximately 300-500 μl of medium. Freshly made medium (with the appropriate ALK5 inhibitor or DMSO) was replaced at the same volumes and well number into new ultra-low adherent plates.
After treatment with the appropriate ALK5 inhibitor, the cell clusters were removed by gravity settling and suspended in complete SP-34 medium supplemented with bFGF 20 ng/ml (without any ALK-5 inhibitor or DMSO) and transferred onto fibronectin (FN) coated (10 μg/ml; Fibronectin from human plasma, Sigma-Aldrich, St. Louis, MO) T75 cm^2 flasks (passage zero (P0)). The emerging cells and remaining cell clusters were exposed to Accutase® for 5-10 minutes, gently triturated and counted. The cells were seeded at […] in T75 FN coated flask (P1) and medium changed every 3-4 days until 80-90% confluence. At this point, the cells were detached using Accutase® for continued culture, screened for surface marker phenotype characterization (flow cytometry), placed into 3D cultures to assess chondrogenic differentiation capacity, or preserved in liquid nitrogen.
Cells were detached using Accutase®, washed and suspended in FACS buffer at a concentration of 0.2×10^6 cells per 100 μl. A panel of CD molecules were used, each with the following fluorochromes: CD34-FITC, CD45-BV510, CD73-APC (BioLegend, San Diego, California) CD90-PE-Cy7, and CD105-BV650 (BD Biosciences, Franklin Lakes, New Jersey). Matching isotype control IgGs with the same fluorochrome conjugates were used for background gating. […] Data was acquired with the Novocyte flow cytometer (ACEA Biosciences Inc. San Diego, CA) and analyzed using FlowJo software (version 10, FlowJo, LLC, Ashland, OR) to determine percentage positive signal for each molecule relative to isotype background non-specific signal controls.

[2] = tested on: H9 ES-MSC; test: Pellet culture chondrogenesis, histology and immunohistochemistry; format: cell-based, human; conditions: 3 weeks, Safranin-O, collagen type I and II
Protocol: (§1) Monolayer-expanded ES-MSC (passage 2-5) were detached using Accutase® and 0.5×10^6 cells in 0.5 ml of chondrogenic medium were centrifuged at 900 rpm (~770 G) for 5 minutes to form high-density pellets. At least 5-6 pellets, for each ES-MSC condition, were cultured in serum-free chondrogenic medium consisting of Dulbecco's Modified Eagle Medium (Mediatech Inc., Manassas, VA), 1×ITS supplement (Sigma-Aldrich, St. Louis, MO), 100 nM Dexamethasone (Sigma), 1.25 mg/ml human serum albumin (Bayer, Leverkusen, Germany), 100 μM ascorbic acid 2-phosphate (Sigma), 1% penicillin/streptomycin/gentamycin (PSG, Gibco, Carlsbad, CA), and 10 ng/ml TGFβ3 (PeproTech, Rocky Hill, NJ). Pellets for ex vivo implantation were cultured for 3 days before implantation; pellets for histologic or gene expression analysis were maintained in culture for 3 weeks with media changes every 3 to 4 days.
(§2) Cell pellets and explants were fixed in Z-Fix (3.7% formaldehyde, Anatech Ltd., Battle Creek, MI), processed for embedding in paraffin, and cut into 4 μm-thick sections. Sections were stained with Safranin-O and Fast Green to visualize glycosaminoglycan distribution in the tissues. Alzarin Red S staining was used to detect the presence of mineralized matrix.
(§3) For assessment of collagen types I and II, sections were pretreated with pepsin (Digest-All 3, Thermo Fisher Scientific) for 9 minutes at 37° C. in a humid chamber before incubation at 4° C. for 12 to 16 hours with the following primary antibodies: rabbit anti-human collagen type I antibody (Ab 34710, Abcam, Cambridge, MA) 1 μg/ml; or mouse anti-human collagen type II (II-II6B3, Hybridoma Bank, University of Iowa) 2 μg/ml. For color development, the ImmPRESS secondary DAB (brown) or AP (red) kits (Vector Laboratories, Burlingame, CA) was used. Isotype controls were used to monitor non-specific staining.

[3] = tested on: HADC 100 ES-MSC; test: as above; format: cell-based, human; conditions: 3 weeks; for cartilage-like tissue formation in high density pellets: HADC 100 ES-MSC, Safranin-O, collagen type I and II
Protocol: as §1, §2, §3

[4] = tested on: ESC cell lines (H9, AND-1, AND-2, and SHEF-1); conditions: monolayer cultures on Matrigel coated flasks, before sorting; cited from earlier work
[5] = tested on: HUES9 ESC; conditions: 10 μM SB431542, fibronectin, monolayer with 10% FBS; cited from earlier work
[6] = tested on: ES-MSC microspheroids; test: Microspheroid building chamber neo-cartilage formation; format: cell-based, human; conditions: 3 weeks in chamber
From the text: Using a microspheroid building block approach, ES-MSC derived from treatment with ALK-5 inhibitor SB525334, as described in Example 1, were used to produce bone and cartilage (osteochondral) tissues. […] The OC tissue unit was implanted into an ex vivo model to develop biphasic tissue with an upper cartilage and lower calcified cartilage layer (FIG. 11, panels J-M). Both upper and lower tissues were Safranin O and collagen type II positive (FIG. 11, panels J-K), while the lower tissue producing calcified neo tissue (FIG. 11, panel L; von Kossa positive) and osteopontin (FIG. 11, panel M).

[7] = tested on: ES-MSC; test: ES-MSC on pneumatospun collagen type I scaffold, in vitro culture; format: cell-based, human; conditions: 6 weeks in chondrogenic medium
From the text: (§4) ES-MSC derived from treatment with ALK-5 inhibitor SB525334, as described in Example 1, produced meniscus cartilage-like tissues when seeded upon blow spun collagen scaffolds in in vitro and in vivo.

[8] = tested on: ES-MSC; test: ES-MSC seeded scaffolds implanted subcutaneously into a nude mouse; format: in vivo; conditions: 1 week in vitro, then subcutaneous in nude mouse for 5 weeks
From the text: as §4

Row | Compound | CD73 positive cells ([1]; SB431542 10 μM 10 days, N=5) | CD90 positive cells ([1]; SB431542 10 μM 10 days, N=5) | CD105 positive cells ([1]; SB431542 10 μM 10 days, N=5) | triple positive for CD73, CD90 and CD105 ([1]; co-expression analysis) | cartilage-like tissue formation in high density pellets [2] | cartilage-like tissue formation in high density pellets [3] | CD73+CD90+CD34− cell population [4] | enrichment for MSC markers CD44, CD73, CD146, and CD166 [5] | staining for GAGs, collagen type II and collagen type I in pellets compared to the other ALK5 inhibitors ([3]; HADC 100 ES-MSC pellets) | cartilage GAGs staining of neo-cartilage tissue [6] | collagen type II staining of neo-cartilage tissue [6] | Safranin O staining (GAG deposition) on collagen scaffold [7] | meniscus cartilage-like tissue, Safranin O staining [8]
1 | NC(=O)c1ccc(-c2nc(-c3ccc4c(c3)OCO4)c(-c3ccccn3)[nH]2)cc1 [SB431542] | 99±1% | 99±1% | 94±4% | 92±9% | consistently produced cartilage like-tissue | consistently produced cartilage like-tissue | 42% | highly enriched |  |  |  |  | 
2 | Cc1cccc(-c2[nH]c(C(C)(C)C)nc2-c2ccc3nccnc3c2)n1 [SB525334] |  |  |  |  |  | also produced cartilage-like tissue |  |  | most consistent staining for GAGs and collagen type II, and lower collagen type I signal; also recorded: most uniform GAGs and collagen type II deposition, and with reduced collagen type I | positive for cartilage GAGs | positive for collagen type II | extensive GAG deposition | strong Safranin O staining profile

— patent publication US20260242738A1, “ALK5 INHIBITORS FOR EFFICIENT DERIVATION OF MESENCHYMAL STEM CELLS FROM EMBRYONIC STEM CELLS” (SCRIPPS HEALTH, priority 2022, published 2026)
